What all share (format): functional
Test [1] is described as follows: Antioxidant activity assessed as rosebengal-induced singlet oxygen radical scavenging activity by ESR spin trapping method.
The nature of test [2]: Antioxidant activity assessed as riboflavin/EDTA-induced superoxide anion radical scavenging activity by ESR spin trapping method.
A short description of test [3]: Antioxidant activity assessed as H2O2-induced hydroxyl radical scavenging activity by ESR spin trapping method.
Test [4] in a line: Antioxidant activity assessed as DMSO/H2O2-induced methyl radical scavenging activity by ESR spin trapping method.
Test [5] is described as follows: Antioxidant activity assessed as riboflavin/EDTA-induced superoxide anion radical scavenging activity by ESR spin trapping method relative to CYPMPO.
Test [6] can be described thus: Antioxidant activity assessed as H2O2-induced hydroxyl radical scavenging activity by ESR spin trapping method relative to CYPMPO.
Test [7] is described as follows: Antioxidant activity assessed as t-butylhyroperoxide-induced alkylperoxyl radical scavenging activity by ESR spin trapping method relative to CYPMPO.
Test [8] is described as follows: Antioxidant activity assessed as AAPH-induced alkoxyl radical scavenging activity by ESR spin trapping method relative to CYPMPO.
Test [9] can be described thus: Antioxidant activity assessed as rosebengal-induced singlet oxygen radical scavenging activity by ESR spin trapping method relative to 4-OH-TEMP.
Test [10] in a line: Antioxidant activity assessed as AAPH-induced alkoxyl radical scavenging activity by ESR spin trapping method.
The nature of test [11]: Antioxidant activity assessed as DMSO/H2O2-induced methyl radical scavenging activity by ESR spin trapping method relative to DMPO.
The nature of test [12]: Antioxidant activity assessed as DMPO/H2O2-induced hydroxyl radical scavenging activity by fast-flow EPR technique.
Test [13] is described as follows: Antioxidant activity assessed as hydroxyl radical scavenging activity.
A short description of test [14]: Antioxidant activity assessed as t-butylhyroperoxide-induced alkylperoxyl radical scavenging activity by ESR spin trapping method.

Molecules are shown by their SMILES.

In the case of `N[C@@H](CCC(=O)N[C@@H](CS)C(=O)NCC(=O)O)C(=O)O`, the K in [1] is 939 ×10⁶ /M/s; in test [2] it was 1.12 ×10³ /M/s; in [3] it was 16.5 ×10⁹ /M/s; in test [4], 1.99 ×10⁶ /M/s; in [10], 2.73 ×10⁶ /M/s. For the same compound, the Ratio was found to be 23.3 in [5]; 1.59 in test [6]; 4.09 in [7]; 121 in test [8]; 10400 in test [9]; 0.142 in test [11].
Regarding `CC1=NN(c2ccccc2)C(=O)C1`, the K in [1] was determined as 27.5 ×10⁶ /M/s; in test [2] it was 2.93 ×10³ /M/s; in [12], 3 ×10¹⁰ /M/s; in [3] it was 298 ×10⁹ /M/s; in test [4], 30 ×10⁶ /M/s; in test [13] it was 1.4 ×10¹⁰ /M/s. Further, the K in test [10] turned out to be 3.16 ×10⁶ /M/s. In addition, the Ratio in [5] stood at 61.1; in [6] it was 28.7; in test [7], 39; in test [8], 139; in test [9], 306; in test [11], 2.14.
Consider `Oc1nc(O)c2nc(O)[nH]c2n1`, for which the K in test [1] stood at 2.31 ×10⁶ /M/s; in [2], 10.7 ×10³ /M/s; in test [3], 9.3 ×10⁹ /M/s; in test [4], 0 M⁻¹ s⁻¹; in [14], 0 M⁻¹ s⁻¹; in test [10] it was 9.9 ×10⁶ /M/s. Moreover, the Ratio in test [5] is 222; in test [6], 0.894; in test [7] it was 0; in test [8], 436; in test [9], 25.7; in [11], 0.
As for `Cc1c(C)c2c(c(C)c1O)CCC(C)(C(=O)O)O2` (stereo not given), the K came out at 62.2 ×10⁶ /M/s in [1]; 2.1 ×10³ /M/s in [2]; 24.8 ×10⁹ /M/s in test [3]; 4.72 ×10⁶ /M/s in test [4]; 0 M⁻¹ s⁻¹ in [14]; 4.83 ×10⁶ /M/s in [10]. For the same compound, the Ratio in test [5] stood at 43.8; in test [6], 23.8; in test [7], 0; in test [8] it was 214; in [9], 692; in test [11], 0.337.
As for `C[C@@H]1O[C@@H](OC[C@H]2O[C@@H](Oc3c(-c4ccc(O)c(O)c4)oc4cc(O)cc(O)c4c3=O)[C@H](O)[C@@H](O)[C@@H]2O)[C@H](O)[C@H](O)[C@H]1O`, the figures for the K in test [1], in test [2] and in test [10] were 3.5 ×10⁸ /M/s, 1.5 ×10⁴ /M/s and 6.9 ×10⁶ /M/s, respectively.
In the case of `CC1(C)CCC=[N+]1[O-]`, the K in [3] came to 2.8 ×10⁹ /M/s; in test [4] it was 1.4 ×10⁷ /M/s.
With `CC1(C)COP(=O)(C2(C)CCC=[N+]2[O-])OC1` (stereo not given), the K in [2] amounted to 48 M⁻¹ s⁻¹; in test [10], 2.27 ×10⁴ /M/s.

Values taken from ChEMBL document CHEMBL3120149, “A multiple free-radical scavenging (MULTIS) study on the antioxidant capacity of a neuroprotective drug, edaravone as compared with uric acid, glutathione, and trolox” (Bioorg Med Chem Lett, 2014).
